“And” between values parts separate entries of the source, which are not always exact repeats. Equal values may be shown once.
Tests used:
[1] = Modafinil particle size analysis, Hiac/Royco Model 9064 sizing counter; assay type: physicochemical; details: for MODAFINIL PARTICLE DIAMETER MEAN / MODAFINIL PARTICLE DIAMETER MEDIAN / MODAFINIL PARTICLE DIAMETER MODE: Hiac/Royco Model 9064, n = 4, +/− standard deviation; for STD DEVIATION BETWEEN MEAN, MEDIAN, MODE: derived from mean, median and mode particle diameter
Source text: Our particle size measurements were obtained using a Hiac/Royco Model 9064 sizing counter following manufacturer instructions (400 μm aperture; saturated water with modafinil solution; PDAS program). A summary of the results of these measurements is presented in Table 1, which includes the mean, median and mode particle sizes for six representative lots of modafinil. For comparative purposes, the standard deviation values derived from the mean, median and mode measurements are provided, as are the ratio values of median:mean:mode. Lots E-A, E-B, E-C and E-D were among the so-called early lots, and Lots L-1 and L-2 were among the so-called late lots.
Measurements obtained using instruments and techniques developed by Hiac/Royko are preferred. A Hiac/Royco sizing counter utilizes the principle of light-extinction (obscuration) for particle size detection. The principle involved is that when a particle suspended in a liquid passes through a sensor microcell where a laser beam is directed through a window at the cell, the particles in the fluid block the laser beam from a light-extinction photodiode (photodetector) resulting in a loss of light intensity. This loss of light intensity detected by the photodetector produces an electrical pulse for each particle. These pulses are proportional in amplitude to the light intensity (light extinction) which is a measure of particle size.

[2] = Plasma modafinil concentration in dogs after single oral dose of lots with different particle size; assay type: in vivo; details: single oral dose of 200 mg, capsule, 0 to 36 hours
Experimental: Given the disparity in results between the foreign and United States studies using what was presumed to be “identical” modafinil, additional non-human analyses were necessary prior to continuation of human clinical trials. Accordingly, animal studies in dogs were carried out to determine the in vivo pharmacokinetics of modafinil with different average particle size diameters, roughly designated as having “small” (Lot L-1) and “large” (Lots E-B and E-D) median particle sizes. Nine male dogs were randomly assigned, according to body weight to three dose groups. Each group was given a single oral dose of 200 of mg modafinil weekly for three weeks in a randomized, cross-over design, as described in Table 2.
After each weekly dose, blood samples (2 ml) were drawn from all animals by venepuncture predose (within one hour of dosing), and at 0.5, 1, 2, 3, 4, 6, 8, 10, 12, 18, 24, and 36 hours post-dose. Blood samples were collected in heparinized (lithium heparin) test tubes and centrifuged at 2,500 to 3,000 rpm. The plasma was drawn off with a glass pipette, and stored frozen (−20° C.) until analyzed. The plasma concentration of modafinil, and its acid and sulfone metabolites were simultaneously determined by high-pressure liquid chromatography, according to the method of Moachon et al. (J. Chromatag. B 654:91 (1994)).

[3] = test system: healthy males; assay: First United States Phase I double-blind ascending dose clinical study; assay type: in vivo; details: humans, oral, 800 mg/day dose level
Source text: While significant testing of modafinil had already been conducted outside the United States, new drug candidates, such as modafinil, typically undergo clinical research in the United States in order to corroborate the information obtained in foreign studies. The first United States clinical evaluation of modafinil was a double-blind, ascending dose study involving oral administration of modafinil to healthy males (i.e., physically and mentally healthy male subjects 18 to 50 years of age; average body weight of −10% to +15% of normal weight for age, height, frame and sex; 2101).
The planned doses for the first United States clinical trial were 200, 400, 600, 800, 1000, 1200 and 1400 mg/day of modafinil or placebo. These dose levels were based upon the safety profile observed during the foreign clinical testing of modafinil. Subsequent doses were given only when it was determined that the previously administered dose was safe and well tolerated. For example, the safety data for the 200 mg study dose was reviewed and assessed before other volunteers received the 400 mg dose.
In this first United States Phase I clinical study, modafinil from Lot L-1 was utilized. Complete data were obtained for three of the seven modafinil dose levels intended for testing, i.e., 200, 400, and 600 mg/day. […] These symptoms resolved without treatment or sequelae following drug discontinuation. […]

[4] = Dissolution rate of modafinil particles in deionized water (first experiment); assay type: physicochemical; details: 50 mg in 500 ml deionized water, stirred, 0-60 minutes, HPLC; L-1 compared with E-D
Experimental: In the first experiment, 500 ml of deionized water was put in a 1-liter beaker and 50 mg of E-D or L-1 was added. The suspension was stirred constantly with a 5 cm Teflon-coated magnetic stir bar and a magnetic stir plate (Thermolyne model #546725). Samples of 1 ml each were taken at times 0, 1, 5, 10, 15, 20, 25, 30, 40, 50, and 60 minutes, with each sample being replaced with 1 ml of deionized water. The stir plate speed setting was “2” for the first 20 minutes, and “7” from 20 to 60 minutes Each sample was immediately filtered through a 0.45 μm filter, to remove undissolved particles. The filtered samples were assayed for modafinil, by high performance liquid chromatography, based upon the method of Moachon et al. (J. Chromatag. B 654:91 (1994)).

[5] = Modafinil particle size measurement, Coulter Counter TA II sizing counter; assay type: physicochemical
Source text: The value ranges defined above are based upon measurements made utilizing technology and instruments developed by the Hiac/Royko Division of Pacific Scientific (11801 Tech Road, Silver Spring, Md. 20904, United States of America). As those in the art may appreciate, different instruments manufactured by different companies may provide different measurements for the same particles. For example, in a characteristic modafinil lot (Lot L-2), the mean, median, and mode particle measurements obtained using a Coulter Counter TA II sizing counter were 43, 31, and 29 microns, respectively. Using a Hiac/Royko Model 9064 sizing counter, the mean, median and mode particle measurements obtained for Lot L-2 were 18.75, 31.41 and 25.31 microns, respectively. These differences are presumably predicated upon the different approaches used in measuring particles of such diminutive sizes. Thus, the value ranges provided above are relative and are most preferably to be considered in view of utilization of instruments and operating systems manufactured by Hiac/Royko, for example, and preferably, the Hiac/Royko Model 9064 system sizing counter.
Following this assumption, we compared various parameters from lots of the bulk drug; such comparisons had not been conducted previously, given the assumption that the modafinil being tested in the United States was the “same” as that investigated outside of the United States. Particle size distribution of the bulk drug was among the parameters examined. We have performed modafinil particle size analyses with a Hiac/Royko Model 9064 sizing counter, a Coulter Counter sizing counter, by optical microscopy and by scanning electron microscopy.

[6] = test system: patients or healthy volunteers; details: doses tested in the foreign studies; cited from earlier work
[7] = test system: monkeys; details: single administration; cited from earlier work
[8] = test system: mice; details: single administration; cited from earlier work
[9] = test system: humans; details: cited from earlier work
[10] = test system: normal young males; assay: Second United States Phase I study (safety, tolerance, pharmacokinetics); assay type: in vivo, humans; details: oral, titrated in 200 mg/day increments, Lots L-1 or L-2
Experimental: After the discrepancy between the foreign and first United States studies was resolved and determined to be related to the differences in particle sizes, a second Phase I study was conducted in the United States, to further determine the clinical safety, tolerance and pharmacokinetic properties of modafinil having a particle size as defined. The second study involved normal young males and an experimental design similar to the first United States study (described above). In the second study, all subjects began at 200 mg/day using modafinil from Lots L-1 or L-2. Dosage was then titrated, in 200 mg/day increments, up to the target dose.

## NC(=O)C[S+]([O-])C(c1ccccc1)c1ccccc1 (centres unmarked) [Lot E-A, 2-(benzhydrylsulfinyl)acetamide]
[1]; listed as E-A
  MODAFINIL PARTICLE DIAMETER MEAN: 34.60 +/− 5.21 μm
  MODAFINIL PARTICLE DIAMETER MEDIAN: 143.65 +/− 3.26 μm
  MODAFINIL PARTICLE DIAMETER MODE: 176.48 +/− 5.32 μm
  STD DEVIATION BETWEEN MEAN, MEDIAN, MODE: 74.27

## NC(=O)C[S+]([O-])C(c1ccccc1)c1ccccc1 (centres unmarked) [Lot E-B, 2-(benzhydrylsulfinyl)acetamide]
[2]; listed as E-B
  peak plasma modafinil concentration (mean, nine dogs): 8 µg/mL
[1]; listed as E-B
  MODAFINIL PARTICLE DIAMETER MEAN: 29.99 +/− 1.09 μm
  MODAFINIL PARTICLE DIAMETER MEDIAN: 89.10 μm and 89.10 +/− 4.28 μm
  MODAFINIL PARTICLE DIAMETER MODE: 78.59 +/− 2.60 μm
  STD DEVIATION BETWEEN MEAN, MEDIAN, MODE: 31.53

## NC(=O)C[S+]([O-])C(c1ccccc1)c1ccccc1 (centres unmarked) [Lot E-C, 2-(benzhydrylsulfinyl)acetamide]
[1]; listed as E-C
  MODAFINIL PARTICLE DIAMETER MEAN: 28.27 +/− 4.10 μm
  MODAFINIL PARTICLE DIAMETER MEDIAN: 79.00 +/− 3.78 μm
  MODAFINIL PARTICLE DIAMETER MODE: 101.00 +/− 40.92 μm
  STD DEVIATION BETWEEN MEAN, MEDIAN, MODE: 37.30

## NC(=O)C[S+]([O-])C(c1ccccc1)c1ccccc1 (centres unmarked) [Lot E-D, 2-(benzhydrylsulfinyl)acetamide]
[2]; listed as E-D
  peak plasma modafinil concentration (mean, nine dogs): 8 µg/mL
[1]; listed as E-D
  MODAFINIL PARTICLE DIAMETER MEAN: 22.14 +/− 0.76 μm
  MODAFINIL PARTICLE DIAMETER MEDIAN: 94.05 μm and 94.05 +/− 13.75 μm
  MODAFINIL PARTICLE DIAMETER MODE: 158.63 +/− 63.81 μm
  STD DEVIATION BETWEEN MEAN, MEDIAN, MODE: 68.28

## NC(=O)C[S+]([O-])C(c1ccccc1)c1ccccc1 [Lot L-1, 2-(benzhydrylsulfinyl)acetamide]
[3]
  adverse events: elevations in heart rate and blood pressure
[2]; listed as L-1
  peak plasma modafinil concentration (mean, nine dogs): 10 µg/mL
[4]
  dissolution rate: faster dissolution rate
[1]; listed as L-1
  MODAFINIL PARTICLE DIAMETER MEAN: 21.40 +/− 2.52 μm
  MODAFINIL PARTICLE DIAMETER MEDIAN: 50.18 μm and 50.18 +/− 12.57 μm
  MODAFINIL PARTICLE DIAMETER MODE: 56.56 +/− 22.39 μm
  STD DEVIATION BETWEEN MEAN, MEDIAN, MODE: 18.73

## NC(=O)C[S+]([O-])C(c1ccccc1)c1ccccc1 [Lot L-2, 2-(benzhydrylsulfinyl)acetamide]
[5]
  mean particle measurement: 43 microns
  median particle measurement: 31 microns
  mode particle measurement: 29 microns
[1]; listed as L-2
  MODAFINIL PARTICLE DIAMETER MEAN: 18.75 +/− 1.89 μm
  MODAFINIL PARTICLE DIAMETER MEDIAN: 31.41 +/− 3.57 μm
  MODAFINIL PARTICLE DIAMETER MODE: 25.31 +/− 1.34 μm
  STD DEVIATION BETWEEN MEAN, MEDIAN, MODE: 6.36
[1]; Hiac/Royko Model 9064
  mean particle measurement: 18.75 microns
  median particle measurement: 31.41 microns
  mode particle measurement: 25.31 microns

## NC(=O)C[S+]([O-])C(c1ccccc1)c1ccccc1 (centres unmarked) [modafinil, 2-(benzhydrylsulfinyl)acetamide]
[6]
  hemodynamic changes in heart rate or blood pressure: No statistically or clinically significant hemodynamic changes
[7]
  nocturnal activity: increased nocturnal activity
[8]
  locomotor activity: increased locomotor activity
[9]
  treatment of idiopathic hypersomnia and narcolepsy: successfully tested
[10]
  maximum tolerable dose (MTD): 600 mg/day
  minimum intolerable dose: 800 mg/day
